The source of these data is patent publication US9023789B2, “Amylin analogs and pharmaceutical compositions thereof” (Novo Nordisk A/S, priority 2012, dated 2015).

One assay deals with Sprague Dawley (SD) rats. In words: ASSAY (I) efficacy testing on appetite (food intake) using an ad libitum fed rat model. Type of assay: in vivo. The note with it: rat, 30 nmol/kg. The text has this: Sprague Dawley (SD) rats from Taconic Europe, Denmark are used for the experiments. The rats have a body weight 200-250 g at the start of experiment. The rats arrive at least 10-14 days before start of experiment to allow acclimatization to experimental settings. During this period the animals are handled at least 2 times. After arrival rats are housed individually for one week in a reversed light/dark phase (meaning that lights are off during daytime and on during nighttime) for two weeks. Since rats are normally active and eat their major part of their daily food intake during the dark period, rats are dosed in the morning right before lights are turned off. This set-up results in the lowest data variation and highst test sensitivity. The experiment is conducted in the rats' home cages and rats have free access to food and water throughout the acclimatization period and the experiment period. Each dose of derivative is tested in a group of 5-8 rats. A vehicle group of 6-8 rats is included in each set of testing. Rats are dosed once according to body weight with a 0.01-3 mg/kg solution administered intraperitoneally (ip), orally (po) or subcutaneously (sc). The time of dosing is recorded for each group. After dosing, the rats are returned to their home cages, where they then have access to food and water. The food consumption is recorded individually continuously by online registration or manually every hour for 7 hours, and then after 24 h and sometimes 48 h. At the end of the experimental session, the animals are euthanized.
The individual data are recorded in Microsoft excel sheets. Outliers are excluded after applying the Grubbs statistical evaluation test for outliers, and the result is presented graphically using the GraphPad Prism program.

The target in the next assay is T1, rat calcitonin receptor (Rattus norvegicus, UniProt P32214).
T1 construct: expressed in transfected cells; host or cells: BHK tk'ts 13 (transient, FuGENE 6), membranes
T1 sequence (P32214 25-479 isoform P32214-2 limits assumed): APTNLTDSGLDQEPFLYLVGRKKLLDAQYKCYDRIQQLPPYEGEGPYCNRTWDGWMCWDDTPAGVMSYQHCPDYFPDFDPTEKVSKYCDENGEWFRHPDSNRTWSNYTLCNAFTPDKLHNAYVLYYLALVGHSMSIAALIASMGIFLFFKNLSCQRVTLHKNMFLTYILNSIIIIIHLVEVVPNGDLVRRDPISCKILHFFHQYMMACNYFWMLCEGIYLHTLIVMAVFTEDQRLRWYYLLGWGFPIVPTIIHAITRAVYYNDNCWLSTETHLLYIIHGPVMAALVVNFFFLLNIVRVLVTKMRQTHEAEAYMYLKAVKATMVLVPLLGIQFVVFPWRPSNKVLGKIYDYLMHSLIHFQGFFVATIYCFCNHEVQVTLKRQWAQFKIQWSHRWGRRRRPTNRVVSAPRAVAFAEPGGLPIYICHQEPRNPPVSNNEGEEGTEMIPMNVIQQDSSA
In words: ASSAY (VIII) binding to the rat calcitonin receptor. The note with it: Table 7, read-out: rCTR bind IC50. Summed up: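 Rat calcitonin receptor is expressed transiently in BHK tk′ts 13 cells cultured in DMEM with 10% FBS. Roughly two days (approximately 48 hours) post-transfection, cells are harvested for membrane preparation.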

Assay [1] addresses T2, human amylin 3(a) receptor (human calcitonin receptor + RAMP-3) in BHK570 cells (Homo sapiens, UniProt O60896+P30988).
T2 construct: expressed in transfected cells
Description: ASSAY (II)a functional assay, human amylin receptor (CRE luciferase). Type of assay: cell-based. Summed up:
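Ligand exposure 3 h at 37 °C, 5% CO2 in DMEM with 10% FBS, 10 mM Hepes pH 7.4. cAMP-driven luciferase read by luminescence after 30 min LucLite at room temperature.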

Assay [2] addresses T3, human amylin receptor (membranes from Amylin 3(a)/CRE-luc cells) (Homo sapiens, UniProt O60896+P30988).
T3 construct: expressed in transfected cells
T3 sequence (P30988 25-474): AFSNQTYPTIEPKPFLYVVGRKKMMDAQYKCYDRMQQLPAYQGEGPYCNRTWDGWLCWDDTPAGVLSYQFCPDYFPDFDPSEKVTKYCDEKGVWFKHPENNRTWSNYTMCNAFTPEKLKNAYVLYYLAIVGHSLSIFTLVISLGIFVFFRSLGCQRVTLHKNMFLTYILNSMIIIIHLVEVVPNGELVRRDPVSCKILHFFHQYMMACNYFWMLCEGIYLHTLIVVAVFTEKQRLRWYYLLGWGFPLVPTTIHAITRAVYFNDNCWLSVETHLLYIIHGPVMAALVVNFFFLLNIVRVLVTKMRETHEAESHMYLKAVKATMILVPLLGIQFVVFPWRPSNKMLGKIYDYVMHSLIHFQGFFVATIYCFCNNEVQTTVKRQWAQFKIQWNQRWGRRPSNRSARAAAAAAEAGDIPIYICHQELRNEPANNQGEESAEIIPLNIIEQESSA
T3 sequence (O60896 24-148 partner): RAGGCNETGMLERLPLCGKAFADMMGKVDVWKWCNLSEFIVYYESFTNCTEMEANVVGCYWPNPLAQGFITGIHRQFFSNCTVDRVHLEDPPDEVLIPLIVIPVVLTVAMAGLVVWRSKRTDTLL
In words: ASSAY (V) binding to the human amylin receptor (SPA, 125I-rat amylin).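 Further: competition binding of cell membranes (35 ng/µL) mixed with SPA beads in 384-well plates at 40 µL total volume, read by scintillation counting.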

The mark [3] stands for this setting: hCTR funct. EC50 divided by hAmylin-R funct. EC50.
The mark [4] stands for this setting: hCTR funct. EC50 over hAmylin-R funct. EC50.
Setting [5] is: human functional selectivity: hCTR funct. EC50 / hAmylin-R funct. EC50.
[6] abbreviates: Table 5, selectivity, hCTR bind IC50 / hAmylin-R bind IC50.
The mark [7] stands for this setting: Table 5a, selectivity, hCTR bind IC50 / hAmylin-R bind IC50.
Setting [8] is: Table 5b, selectivity, hCTR bind IC50 / hAmylin-R bind IC50.
Setting [9] is: Table 7, human binding selectivity, included for comparison.
The mark [10] stands for this setting: Table 7a (preferred compounds), human binding selectivity, included for comparison.
Where [11] appears, read: ratio of human calcitonin receptor binding IC50 to human amylin receptor binding IC50.

As a reminder, the pIC50 is the negative decadic logarithm of the IC50, by convention in mol/L.

pIC50: −log10 of the molar value. Numbered stars: 1 amine (or outer) side, 2 acyl side, 3 side chain; on linkers, the order of the positions; unused ones are H or OH. Bridge positions count the residues as written; N and C are the ends. Side chains are listed from the residue outwards. Peptide text beside a SMILES is read from it. * marks the point of attachment. C20 diacid = O=C(O)CCCCCCCCCCCCCCCCCCC(=O)*; γGlu = O=C(O)[C@H](CCC(=O)[*:2])N[*:1]

For the compound `CC[C@H](C)[C@H](NC(=O)[C@H](C)NC(=O)CNC(=O)[C@H](Cc1ccccc1)NC(=O)[C@H](CC(N)=O)NC(=O)[C@@H]1CCCN1C(=O)[C@H](CO)NC(=O)[C@H](CO)NC(=O)[C@H](Cc1c[nH]cn1)NC(=O)[C@H](CCCNC(=N)N)NC(=O)[C@H](CC(C)C)NC(=O)[C@H](Cc1ccccc1)NC(=O)[C@H](CC(N)=O)NC(=O)[C@H](C)NC(=O)[C@H](CC(C)C)NC(=O)[C@H](CCCNC(=N)N)NC(=O)[C@H](CCC(N)=O)NC(=O)[C@@H](NC(=O)[C@H](C)NC(=O)[C@@H]1CSSC[C@H](NC(=O)[C@@H](N)CCCCNC(=O)COCCOCCNC(=O)CC[C@H](NC(=O)CCCCCCCCCCCCCCCCCCC(=O)O)C(=O)O)C(=O)N[C@@H](CC(N)=O)C(=O)N[C@@H]([C@@H](C)O)C(=O)N[C@@H](C)C(=O)N[C@@H]([C@@H](C)O)C(=O)N1)[C@@H](C)O)C(=O)N1CCC[C@H]1C(=O)N[C@@H](CO)C(=O)N[C@@H](CO)C(=O)N[C@H](C(=O)N[C@@H](CC(N)=O)C(=O)N[C@H](C(=O)NCC(=O)N[C@@H](CO)C(=O)N[C@@H](CCCNC(=N)N)C(=O)N[C@H](C(=O)N[C@@H](Cc1ccc(O)cc1)C(N)=O)[C@@H](C)O)C(C)C)[C@@H](C)O` [Example 38], in the assay on Sprague Dawley (SD) rats (0-24 h), the “Food intake reduction 0-24 h 30 nmol/kg (%)” value was 47%. Besides, the “Food intake reduction 24-48 h 30 nmol/kg (%)” value in the assay with Sprague Dawley (SD) rats (24-48 h) is on record as 0%. For the same compound, the pIC50 on rat calcitonin receptor is 7.42.
`CC[C@H](C)[C@H](NC(=O)[C@H](C)NC(=O)CNC(=O)[C@H](Cc1ccccc1)NC(=O)[C@H](CC(N)=O)NC(=O)[C@@H]1CCCN1C(=O)[C@H](CO)NC(=O)[C@H](CO)NC(=O)[C@H](Cc1c[nH]cn1)NC(=O)[C@H](CCCNC(=N)N)NC(=O)[C@H](CC(C)C)NC(=O)[C@H](Cc1ccccc1)NC(=O)[C@H](CCC(=O)O)NC(=O)[C@H](C)NC(=O)[C@H](CC(C)C)NC(=O)[C@H](CCCNC(=N)N)NC(=O)[C@H](CCC(N)=O)NC(=O)[C@@H](NC(=O)[C@H](C)NC(=O)[C@@H]1CSSC[C@H](NC(=O)[C@@H](N)CCCCNC(=O)CC[C@H](NC(=O)CC[C@H](NC(=O)CCCCCCCCCCCCCCCCCCC(=O)O)C(=O)O)C(=O)O)C(=O)N[C@@H](CC(N)=O)C(=O)N[C@@H]([C@@H](C)O)C(=O)N[C@@H](C)C(=O)N[C@@H]([C@@H](C)O)C(=O)N1)[C@@H](C)O)C(=O)N1CCC[C@H]1C(=O)N[C@@H](CO)C(=O)N[C@@H](CO)C(=O)N[C@H](C(=O)N[C@@H](CC(N)=O)C(=O)N[C@H](C(=O)NCC(=O)N1CCC[C@H]1C(=O)N[C@@H](CC(N)=O)C(=O)N[C@H](C(=O)N[C@@H](Cc1ccccc1)C(N)=O)[C@@H](C)O)C(C)C)[C@@H](C)O` [Example 127] (H-K([γGlu-γGlu-C20 diacid])CNTATCATQRLAEFLRHSSPNFGAIPSSTNVGPNTF-NH2; disulfide 2-7 (inferred)): the “Ratio hCT/hAmylin funct.” value in assay [1] (setting [3]), in assay [1] (setting [4]) and in assay [1] (setting [5]) was 9.9 each time. Besides, the “Ratio hCT/hAmylin binding” value in assay [2] (setting [6]), in assay [2] (setting [7]), in assay [2] (setting [8]), in assay [2] (setting [9]), in assay [2] (setting [10]) and in assay [2] (setting [11]) was 18.0 each time. Further, the pIC50 on rat calcitonin receptor is 7.63.
In the case of `CC[C@H](C)[C@H](NC(=O)[C@H](C)NC(=O)CNC(=O)[C@H](Cc1ccccc1)NC(=O)[C@H](CC(N)=O)NC(=O)[C@@H]1CCCN1C(=O)[C@H](CO)NC(=O)[C@H](CO)NC(=O)[C@H](Cc1c[nH]cn1)NC(=O)[C@H](CCCNC(=N)N)NC(=O)[C@H](CC(C)C)NC(=O)[C@H](Cc1ccccc1)NC(=O)[C@H](CCC(=O)O)NC(=O)[C@H](C)NC(=O)[C@H](CC(C)C)NC(=O)[C@H](CCCNC(=N)N)NC(=O)[C@H](CCC(N)=O)NC(=O)[C@@H](NC(=O)[C@H](C)NC(=O)[C@@H]1CSSC[C@H](NC(=O)[C@@H](N)CCCCNC(=O)CC[C@H](NC(=O)CCCCCCCCCCCCCCCCCCC(=O)O)C(=O)O)C(=O)N[C@@H](CC(N)=O)C(=O)N[C@@H]([C@@H](C)O)C(=O)N[C@@H](C)C(=O)N[C@@H]([C@@H](C)O)C(=O)N1)[C@@H](C)O)C(=O)N1CCC[C@H]1C(=O)N[C@@H](CO)C(=O)N[C@@H](CO)C(=O)N[C@H](C(=O)N[C@@H](CC(N)=O)C(=O)N[C@H](C(=O)NCC(=O)N[C@@H](CO)C(=O)N[C@@H](Cc1c[nH]cn1)C(=O)N[C@H](C(=O)N[C@@H](Cc1ccc(O)cc1)C(N)=O)[C@@H](C)O)C(C)C)[C@@H](C)O` [Example 128] (H-K([γGlu-C20 diacid])CNTATCATQRLAEFLRHSSPNFGAIPSSTNVGSHTY-NH2; disulfide 2-7 (inferred); N-terminus assumed), the “Ratio hCT/hAmylin funct.” value in assay [1] (setting [3]), in assay [1] (setting [4]) and in assay [1] (setting [5]) was 13.1 in each case. The “Ratio hCT/hAmylin binding” value in assay [2] (setting [6]) came out at 26.4; in assay [2] (setting [7]), 26.4; in assay [2] (setting [8]), 26.4; in assay [2] (Table 5c, selectivity, hCTR bind IC50 / hAmylin-R bind IC50), 26.4; in assay [2] (setting [9]), 26.4; in assay [2] (setting [10]), 26.4. The “Ratio hCT/hAmylin binding” value in assay [2] (setting [11]) stood at 26.4. Also, the pIC50 at rat calcitonin receptor was 7.58.
